Positions of bridges follow the written chain, without caps; N, C: chain ends. No end group written: not given here.
Key:
Type in all cases: cell-based, mouse
[1] = system: P2X7 in Neuro-2a cells; assay: ATP-induced YO-PRO-1 uptake (P2X7 pore formation); details: short-term effect
Description: (§1) Neuro-2a neuroblastoma cells (ATCC® CCL-131™) were obtained from American Type Culture Collection (Manassas, VA, USA). The cells were cultivated in DMEM medium (BioloT, St. Petersburg, Russia) supplemented with 10% of fetal bovine serum (BioloT, St. Petersburg, Russia) and 1% penicillin/streptomycin (BioloT, St. Petersburg, Russia) at 37 °C and 5% CO2. Initially, cells were incubated in cultural flasks until sub-confluent (~80%). For testing, Neuro-2a cells were seeded in 96-well plates and experiments were started after 24 h.
Neuro-2a cells were seeded in 96 well plates at a density of 4 × 10^4 cells/well and incubated in DMEM for 24 h, 37 °C, 5% CO2. Then the cells were washed once with HBSS and filled with 180 μL of the same buffer. YO-PRO-1 (Sigma-Aldrich, St. Louis, MO, USA, 5 μM final concentration) was loaded into the wells, the cells were incubated for 15 min at 37 °C. Further, the studied peptides were added to the cells at concentrations of 10, 1, 0.1 and 0.01 μM and incubated for 10 min at 37 °C. After that ATP (4 mM final concentration) was added and the plates were incubated for an additional 10 min. The standard P2X7R inhibitor, A438079 (Sigma-Aldrich, St. Louis, MO, USA), was used as inhibitory control. Then the cells were washed three times with the buffer solution and fluorescence intensity was measured with PHERAstar FS plate reader (BMG, LABTECH, Ortenberg, Germany) at λex = 485 nm and λem= 520 nm in the “End Point” mode. The effectiveness of compounds was evaluated relative to control without ATP.
(§2) All data were obtained in three independent replicates and calculated values were expressed as mean ± standard error of the mean (SEM). The Student’s t-test was performed using SigmaPlot 14.0 (Systat Software Inc., San Jose, CA, USA) to determine statistical significance.

[2] = system: Neuro-2a cells; assay: Cytoprotection against ATP-induced cell death (MTT assay); details: long-time application of ATP (4 mM, 48 h)
Description: as §1
The cytoprotective effect of peptides was assessed in Neuro-2a cells using the MTT assay. In brief, an aliquot (180μL) of cell suspension with a nominal cell density of 3 × 10^4 cells/well was dispensed into 96-well plates. The cells were incubated for 24 h in a humidified atmosphere containing 5% CO2 to allow cell attachment. At the end of the preincubation period, ATP (Sigma-Aldrich, St. Louis, MO, USA) was added to the cells at a concentration of 4 mM. Studied peptides were added to the cells at concentrations of 0.1, 1.0 or 10.0 μM for 1h prior to the addition of ATP. After incubation for 48 h at 37 °C cell viability was detected using the MTT as described previously. The standard P2X7 inhibitor, A438079 (Sigma-Aldrich, St. Louis, MO, USA), at a concentration of 10 μM was used as a positive control.
as §2

[3] = system: P2X7 in Neuro-2a cells; assay: ATP-induced Ca2+ influx (Fluo-8 AM); details: for reduction of calcium level: 30 min pre-incubation, 1 mM ATP
Description: as §1
Neuro-2a cells were seeded in 96-well plates at a density of 4 × 10^4 cells/well and incubated in DMEM for 24 h at 37 °C, 5% CO2. Then the cells were washed twice with culture medium and loaded with 5 μM Fluo-8 AM (Abcam, Cambridge, UK) dye and 1 μM Pluronic® F-127 (Sigma-Aldrich, St. Louis, MO, USA), and incubated for 40 min at 37 °C in HBSS: 140 mM NaCl, 5 mM KCl, 0.8 mM MgCl2, 2 mM CaCl2, 10 mM glucose, 10 mM HEPES, pH 7.4. Then the cells were washed two times with the same solution but without the fluorescent dye and treated with the studied peptides for 30 min at RT in the dark. In some experiments Ca^2+-free medium was used: 140 mM NaCl, 5 mM KCl, 0.8 mM MgCl2, 10 mM glucose, 10 mM HEPES, 5 mM EGTA, pH 7.4. ATP (1 mM final concentration) was added using a microinjector (20 μL/well) 10 s later the baseline recording and the readings were taken up to 50 s in 1 s intervals. The standard P2X7 inhibitor, A438079 (Sigma-Aldrich, St. Louis, MO, USA), was used as inhibitory control. Ionomycin (Sigma-Aldrich, St. Louis, MO, USA) and BHQ were used to generate a generic calcium signal in cells. 2,5,-di(t-butyl) hydroquinone (BHQ) was synthesized and kindly provided by Dr. Polonik S.N. (PIBOC FEBRAS). Fluo-8 was excited at 485 nm, and the emission at 520 nm was measured with a PHERAstar®FS plate reader (BMG LABTECH, Ortenberg, Germany). The data were processed by MARS Data Analysis v. 3.01R2 (BMG Labtech, Ortenberg, Germany). Mean values and standard error of peak height calcium were calculated.
as §2

RGICSEPKVVGPCKAGLRRFYYDSETGECKPFIYGGCKGNKNNFETLHACRGICRA (disulfide 4-54, 13-37, 29-50 (inferred)) [HCRG1]
entry of YO-PRO-1 into cells (summary in discussion) [1]: regulating the entry of low molecular weight fluorescent dye YO-PRO-1 into cells | protection from ATP-induced death [2]: partially protected neuroblastoma cells from ATP-induced death | reduction of calcium level ([3]; 0.1 μM peptide, mean ± SE, n = 3): 57.5 ± 11.6% | reduction of calcium level ([3]; 0.1–10 μM peptide): significantly reduced the calcium level | effect on Ca2+ influx (summary in discussion) ([3]; short-term effect): a significant effect on Ca^2+ influx into cells

— PMC10053369, “Recombinant Analogs of Sea Anemone Kunitz-Type Peptides Influence P2X7 Receptor Activity in Neuro-2a Cells” (Marine Drugs, 2023)
